Assay results: patent publication US20240398775A1, “PHARMACEUTICAL COMPOSITION FOR USE IN TREATING COGNITIVE DECLINE OR FOR USE IN TREATING OVERWEIGHT OR OBESITY” (University of the Ryukyus, priority 2021, published 2024)

Columns and labels:
[1] = system: Ca2+ permeable AMPAR (CP-AMPAR); assay: Ca2+ imaging (Fluo-3) of hippocampal brain slices, AMPA + CTZ application (CP-AMPA reaction); type: cell-based, mouse
NMDA receptor (NMDAR) = assay: Ca2+ imaging (Fluo-3) of hippocampal brain slices, NMDA + glycine application (NMDA reaction); type: cell-based, mouse
MAP2, GluA1, GluA2, DCX = assay: Immunohistochemical analysis (MAP2, GluA1, GluA2, DCX) of hippocampus; type: in vivo, mouse
Excerpt: Mouse brains were perfusion-fixed with 4% paraformaldehyde, embedded in paraffin, and cut into 4 micrometer thick sections to be used for immunohistochemical analysis of monoclonal antibodies against DCX (E-6 monoclonal, 1:50, Santa Cruz Biotechnology Inc, Dallas, USA), MAP2ab (AP-20 monoclonal, 1:100, SIGMA-ALDRICH, St. Louis, USA), GluA1 ([…] polyclonal, 1:100, EMD Millipore Corp., Burlington, USA), and GluA2 (AB 1768-1 polyclonal, 1:5, EMD Millipore Corp., Burlington, USA).
The immunostained region in each of the expression regions of MAP2, GluA1, and GluA2 was acquired using a ZVI format AxioVision (Carl Zeiss, Germany) microscope (objective lens 20×). Generation of data image processing with image segmentation was performed using machine learning with ZEN Intelliesis software. 1000 or more cells were examined in each group. One-way variance analysis was used for testing variance among the three groups excluding data of 3SD or higher. Then, the following number of samples was used.

NL-G-F mice = assay: Novel object recognition test in Alzheimer's dementia model mice; type: in vivo, mouse; details: NL-GF mice (n=5), perampanel 5 mg/kg body weight/day in CD diet from 8 to 13 weeks of age
Procedure: Mice of CD, HFD, and HFD with PER treatment were handled daily for 5 minutes for 5 days prior to the start of the novel object recognition test. PER means the perampanel, which is an AMPA receptor antagonist. The mice were habituated to a 35 cm square, 25 cm high box for 10 minutes on the first day, and were given 2 identical objects (familiar objects) for 10 minutes on the second day. On the third day, one of the familiar objects was replaced with a novel object of different shape and color (FIG. 2F). […] The search time for each object was measured by offline analysis (47).
NL-GF mice begin to accumulate in the brain of Aβ from 8 weeks of age (Nat. Neurosci. 2014 17, 661-4). In this example, the AD model mouse (n=5) was fed a CD diet containing a perampanel at a dose of 5 mg/kg body weight/day from 8 to 13 weeks of age, and the mouse was subjected to a novel object recognition test. In the negative control (n=5), a normal CD diet without perampanel was taken.
NL-G-F(−/−) mice, a dementia model, were administered with memantine (mema), exercise, memantine and exercise, memantine and perampanel, and perampanel alone (5 mg/kg or 10 mg/kg), and subjected to behavioral experiments. As the behavior test, a novel object recognition test and a hippocampus function-dependent fear conditioning test were performed. […]

NL-G-F(−/−) mice = assay: Hippocampus function-dependent fear conditioning test in NL-G-F(−/−) mice; type: in vivo, mouse; details: perampanel alone 5 mg/kg or 10 mg/kg
Procedure: Contextual fear conditioning was applied with slight modifications to published protocols (50). Mice were transferred to the animal experimental room and allowed to acclimatize for at least 30 minutes prior to contextual fear conditioning training. Next, the mice were placed in a foot shock system model MK-450 MSQ (Muromachi Kikai Co., Ltd., Japan), searching was performed for 2 minutes, and then 3 electric foot shocks (0.8 mA, 2 sec, 2 min interval) were performed. After mice were left in the apparatus for an additional 1 minute, the animals were removed.
NL-G-F(−/−) mice, a dementia model, were administered with memantine (mema), exercise, memantine and exercise, memantine and perampanel, and perampanel alone (5 mg/kg or 10 mg/kg), and subjected to behavioral experiments. As the behavior test, a novel object recognition test and a hippocampus function-dependent fear conditioning test were performed. Memantine is an antagonist of the NMDA receptor, but has distinct properties from other NMDA receptor antagonists (refer to Hokama Y., et al., Neuro Oncology, 2022, noac162). That is, memantine is a drug that works only when glutamic acid is excessively present in the brain.

[2] = HFD-fed mice with oral PER 5 mg/kg/day, AMPA 100 μM + CTZ 100 μM, N = 5
[3] = hippocampal slices from mice fed HFD and PER 5 mg/kg/day orally by hydrogel
[4] = HFD-fed mice with oral PER 5 mg/kg/day, NMDA 50 μM + glycine 10 μM, N = 5

In the case of N#Cc1ccccc1-c1cc(-c2ccccn2)cn(-c2ccccc2)c1=O [PER, 3-(2-cyanophenyl)-5-(2-pyridyl)-1-phenyl-1,2-dihydropyridine-2-one], the “increase in [Ca2+]i via pathological AMPARs” value [1] is reported as “completely disappeared”, the “inhibitory effect on CP-AMPAR in EC, CA1, CA2, CA3 and DG” value [1] is reported as “significant inhibitory effect” and the “CP-AMPA reaction CA1 (maximum value of NF525)” value [1, 2] is reported as 1.00 ± 0.01. The “CP-AMPA reaction CA2 (maximum value of NF525)” value [1, 2] was 1.00 ± 0.02, the “CP-AMPA reaction CA3 (maximum value of NF525)” value [1, 2] was 1.00 ± 0.01 and the “CP-AMPA reaction DG (maximum value of NF525)” value [1, 2] was 1.02 ± 0.01. The “CP-AMPA reaction EC (maximum value of NF525)” value [1, 2] was 1.05 ± 0.05, the “elevation of [Ca2+]i via AMPAR” value ([1]; acute slices from HFD-fed mice, 100 μM PER applied) was “completely disappeared” and the “transmission via AMPAR” value [1, 3] was “normalize transmission via AMPAR”. The “NMDA reaction CA1 (maximum value of NF525)” value (NMDA receptor (NMDAR); [4]) was 1.20 ± 0.08, the “NMDA reaction CA2 (maximum value of NF525)” value (NMDA receptor (NMDAR); [4]) was 1.20 ± 0.09 and the “NMDA reaction CA3 (maximum value of NF525)” value (NMDA receptor (NMDAR); [4]) was 1.12 ± 0.04. The “NMDA reaction DG (maximum value of NF525)” value (NMDA receptor (NMDAR); [4]) was 1.17 ± 0.04, the “NMDA reaction EC (maximum value of NF525)” value (NMDA receptor (NMDAR); [4]) was 1.16 ± 0.06 and the “signal transduction via the NMDAR” value (NMDA receptor (NMDAR); [3]) was “simultaneously restored”. For the same compound, the “NMDAR function in all hippocampal subregions” value (NMDA receptor (NMDAR); ob/ob mice, PER administration, p<0.05) was “restoration of NMDAR function”, the “integrity of dendritic arbors in CA1 (anti-MAP2 antibody staining)” value (MAP2, GluA1, GluA2, DCX; HFD mice with PER) was “completely restored” and the “GluA2/GluA1 ratio (immunostaining)” value (MAP2, GluA1, GluA2, DCX; HFD mice with PER treatment) was “increased”. The “immunostaining reaction of GluA1 in CA1” value (MAP2, GluA1, GluA2, DCX; HFD mice with PER treatment) was “decreased”, the “double cortin positive cells” value (MAP2, GluA1, GluA2, DCX; HFD mice with PER, DG) was “increase” and the “GluA1 expression in CA1 (immunoreactive region)” value (MAP2, GluA1, GluA2, DCX; ob/ob mice with PER) was “restored”. For the same compound, the “ratio of GluA2/GluA1 (immunoreactive region)” value (MAP2, GluA1, GluA2, DCX; ob/ob mice with PER) was “restored”, the “integrity of the dendritic arbors (MAP2 staining)” value (MAP2, GluA1, GluA2, DCX; ob/ob mice, PER for 1 week or 12 weeks) was “significantly more restored by 12 week administration than by 1 week administration” and the “maturation of the protrusions of DCX-positive cells” value (MAP2, GluA1, GluA2, DCX; ob/ob mice, PER for 12 weeks) was “progressed”. For the same compound, the novel object recognition (NL-G-F mice) was “significantly distinguish” and the “cognitive function in hippocampus function-dependent fear conditioning test” value (NL-G-F(−/−) mice) was “remarkable improvement in cognitive function”.
